Reference: US12048691B2 (SPERO THERAPEUTICS, INC., priority 2020, dated 2024)
≈ marks a conversion by molar mass, not a printed value.

How the values were obtained:
Assay in all cases: Broth microdilution against Gram-positive clinical isolates
Format in all cases: cell-based
[1] = tested on: Vancomycin-susceptible Enterococcus faecalis; settings: Enterococcus faecalis; E. faecalis, 31 isolates
Procedure: (§1) The purpose of this study was to investigate the in vitro activity of tebipenem and comparator agents, including ertapenem and meropenem, against a recent collection of Gram-positive isolates associated with clinical infections. The susceptibility of 580 Gram-positive organisms were tested, including: Methicillin-susceptible Staphylococcus aureus (MSSA, 489 isolates), Methicillin-susceptible Staphylococcus epidermidis (MSSE, 31), other methicillin-susceptible coagulase-negative staphylococci (MSCONS, 29), and Vancomycin-susceptible Enterococcus faecalis (31). Bacterial species were identified by JMI Laboratories using standard microbiology methods and matrix-assisted laser desorption ionization-time of flight mass spectrometry (Bruker Daltonics, Bremen, Germany). The isolates were collected in 2018 and 2019 as part of the SENTRY surveillance program and selected to be representative of these species with 45.0% from the United States, 44.3% from Europe, 5.3% from the Asia-Pacific region, and 5.3% from Latin America. Isolates are primarily from pneumonia in hospitalized patients (498 isolates; 85.9%), urinary tract infections (42 isolates; 7.2%), and bloodstream infections (38 isolates; 6.6%). Isolates were tested in a central laboratory (JMI Laboratories) for antimicrobial susceptibility using the CLSI M07 (2018) reference broth microdilution method. JMI Laboratories produced frozen-form 96-well panels and used cation-adjusted Mueller-Hinton broth (CA-MHB) as the testing medium. All categorical interpretations used CLSI M100 (2021) and EUCAST v10.0 (2021) breakpoint criteria, where published. Quality control organisms include Escherichia coli ATCC 25922, Escherichia coli ATCC 35218, Enterococcus faecalis ATCC 29212, Pseudomonas aeruginosa ATCC 27853, and Staphylococcus aureus ATCC 29213 were tested concurrently with clinical isolates.

[2] = tested on: Methicillin-susceptible Staphylococcus aureus (MSSA); settings: Staphylococcus aureus, 489 isolates
Procedure: as §1

[3] = tested on: Methicillin-susceptible Staphylococcus epidermidis (MSSE); settings: Staphylococcus epidermidis, 31 isolates
Procedure: as §1

SMILES: C[C@@H](O)[C@H]1C(=O)N2C(C(=O)O)=C(S[C@@H]3CN[C@H](C(=O)Nc4cccc(C(=O)O)c4)C3)[C@H](C)[C@H]12 [Ertapenem, ertapenem]
- MIC90 [1]: > 8 µg/mL
- MIC90 [2]: 0.25 µg/mL (≈ 0.526 µM)
- MIC90 [3]: 0.5 µg/mL (≈ 1.05 µM)
